According to patent EP1733758A1, “Methods for administration of a farnesyl dibenzodiazepinone” (Ecopia Biosciences Inc., priority 2005, dated 2006):
Like-named read-outs stand apart in the source and are kept apart here.

What was measured:
[1] = system: human glioma (U-87MG) tumor xenograft; assay: Human U-87MG glioblastoma xenograft antitumor efficacy study; type: in vivo, female athymic (nu/nu) nude mice; settings: SC bolus 30 mg/kg q1d x 5 over 2 weeks
Source text: In this model and the models of Examples 3, 6 and 7, tumor growth was followed every other day by measuring tumor length (L) and width (W) using a calliper. Measurements were converted to tumor volumes (TV; mm^3) using the standard formula, TV = (L xW^2)/2. Tumor volume at day n was expressed as relative tumor volume (RTV) according to the following formula RTV = TVn / TV0, where TVn is the tumor volume at day n and TV0 is the tumor volume at day 0. The percentage of tumor growth inhibition (%TGI) was determined by 1 ― (mean RTV of treated group/ mean RTV of control group) x 100. […] Statistical analysis was calculated by the two-tailed unpaired t test using the Prism software. Animals were weighed at least twice weekly during and after treatment until completion of the study. The mice were examined frequently for overt signs of any adverse drug-related side effects.
The human U-87 MG (ATCC® no. HTB-14™) glioblastoma antitumor efficacy study was performed at INSERM U318 (Grenoble, France). […]
For the human glioblastoma antitumor efficacy study, female athymic (nu/nu) nude mice (6-7 weeks of age) were inoculated SC with 5 x 10^6 U-87MG cells (day 0). […] Tumor growth inhibition (TGI) was calculated on day 34 post tumor cell inoculation, at which time some animals from the vehicle control group had to be sacrificed due to tumor burden.

[2] = system: human prostate tumor (PC3) xenografts; assay: Human PC3 prostate tumor xenograft efficacy; type: in vivo, HRLN male nude mice; settings: for %T/C: day 38, P< 0.0001
Description: The anticancer activity of the compound of Formula I was further tested in a human PC3 prostate model in mice. HRLN male nude mice (8 weeks of age) were implanted with 1 mm^3 PC3 tumor fragments subcutaneously (SC) in the right flank. Animals were randomized (ten per group) when tumors reach an average size of 80 - 120 mg and treatment began according to the table below. For these studies, the compound of Formula I was formulated in 5% ethanol, 5% PEG-400, 15% Polysorbate 80, and 75% of water containing 5% dextrose.
Tumor measurements were taken twice weekly using callipers and were converted to tumor mass (in milligrams) using the formula: with^2 (mm) x length (mm) x 0.52. Body weights were also recorded twice weekly. Statistical analysis was done using the unpaired two-tailed Student's t test.

[3] = Acute toxicity of 24-hour CIV administration in monkeys; type: in vivo; settings: infusion rate 2 mL/kg/hour
[4] = Population pharmacokinetic analysis (NONMEM), monkey; type: in vivo; settings: for clearance: monkey, plasma, intravenous; for clearance / mean steady-state plasma concentration: monkeys, 14-day continuous infusion
Description: (§1) An analysis was performed to derive allometric equations for Formula I pharmacokinetic parameters using Formula I plasma concentration-time data from three species, including mouse, rat, and monkey, and to estimate human pharmacokinetic parameters from those allometric equations.
(§2) Plasma concentrations of Formula I were obtained from mice, rats, and monkeys following intravenous injection or continuous infusion. Formula I pharmacokinetic parameters in mice, rats, and monkeys were estimated using population pharmacokinetic analysis, a function of the software program NONMEM™ (version 5). Typical population pharmacokinetic parameters for Formula I in humans were extrapolated from allometric equations that were derived from pharmacokinetic parameters estimated in the three animal species.
A two-compartment model with a first-order elimination from the central compartment adequately described Formula I plasma concentration-time profiles following intravenous bolus injection (30 mg/kg) in mice and rats, 7-day continuous infusion in rats (50 to 170 mg/kg/day), and 14-day continuous infusion in monkeys (5 to 30 mg/kg/day).
Application of a two-compartment model with Michaelis-Menten elimination better described the concentration data in monkeys than the linear model. Because the target concentration in humans is 2 µM, at which linear pharmacokinetics is assumed, all simulations for human plasma concentrations were performed based on a two-compartment model with linear first-order elimination.

[5] = Allometric extrapolation of population pharmacokinetic parameters to humans; settings: for half-life: human; for half-life / clearance / Vd: plasma, intravenous; for Vd: read-out: Vss
Description: as §1, §2
Allometric equations for the pharmacokinetic parameters clearance (CL), volume of distribution (V1 and V2), and inter-compartmental clearance (Q) were derived. The population PK parameters of the compound of Formula I for humans were extrapolated from the allometric equations, and the estimated values are shown in Table 6. Simulated Formula I plasma concentration-time profiles in humans are shown in Figure 13 and estimated end of infusion concentrations are provided in Table 7.

tumor cell lines = assay: In vitro activity against tumor cell lines (average); type: cell-based
[6] = Pharmacokinetics and tissue distribution after bolus IV, IP, SC and PO administration in mice; type: in vivo, female Crl: CD1 mice; settings: daily bolus administrations of 30 mg/kg (SC) or 20 mg/kg (IP)
[7] = Monkey (CIV), typical population PK parameter
[8] = 5 mg/kg/day (Example 9 analysis)
[9] = 15 mg/kg/day (Example 9 analysis)
[10] = 30 mg/kg/day (Example 9 analysis)
[11] = Human, WT 70 Kg, estimated from allometric equations
[12] = Human, estimated from allometric equations derived from mouse, rat and monkey

CC(C)=CCC/C(C)=C/CC/C(C)=C/CN1C(=O)c2cccc(O)c2Nc2c(O)cc(O)cc21 [Formula I, 10-farnesyl-4,6,8-trihydroxy-dibenzodiazepin-11-one]
body weight loss [1]: no significant body weight loss | %TGI ([1]; day 34, P = 0.05): 36% | %T/C ([2]; bolus SC 30 mg/kg days 1 to 5, 8 to 12 and 15 to 19): 25.5% | %T/C ([2]; bolus SC 50 mg/kg every three days x 7): 14.6% | antitumor activity ([2]; bolus intravenous treatment (100 mg/kg, 5/2/5/2/5)): did not result in activity | acute toxicity / tolerability ([3]; 35 mg/kg): well tolerated | acute toxicity / tolerability ([3]; 70 mg/kg): well tolerated | Q ([4]; Monkey (CIV), WT 3.8 Kg): 0.151 L/h | V1 ([4]; Monkey (CIV), WT 3.8 Kg): 0.771 L | V2 ([4]; Monkey (CIV), WT 3.8 Kg): 1.59 L | Ke [4, 7]: 2.172 h⁻¹ | Q [4, 7]: 0.663 mL/min/kg | V1 [4, 7]: 0.203 L/kg | V2 [4, 7]: 0.419 L/kg | clearance [4, 8]: 10.5 mL/min/kg | clearance [4, 9]: 9.5 mL/min/kg | clearance [4, 10]: 3.83 mL/min/kg | mean steady-state plasma concentration [4, 8]: 0.75 µM | mean steady-state plasma concentration [4, 9]: 2.57 µM | mean steady-state plasma concentration [4, 10]: 14.07 µM | Q [5, 11]: 2.27 L/h | V1 [5, 11]: 13.9 L | V2 [5, 11]: 39.2 L | Ke [5, 12]: 1.192 h⁻¹ | Q [5, 12]: 0.533 mL/min/kg | V1 [5, 12]: 0.198 L/kg | V2 [5, 12]: 0.559 L/kg | half-life ([5]; estimated from allometric equations derived from mouse, rat and monkey, read-out: t1/2,α (converted)): 0.509 h | half-life ([5]; estimated from allometric equations derived from mouse, rat and monkey, read-out: t1/2,β (converted)): 13.8 h | clearance [5, 11]: 275 mL/min | Vd [5, 11]: 53.1 L | clearance [5, 12]: 3.93 mL/min/kg | Vd [5, 12]: 0.757 L/kg | IC50 (tumor cell lines): ≥ 1000 nM | sustained plasma concentrations [6]: 1 to 2 µM
